Where no end group is shown, it is not given here.
Columns and labels:
[1] = test system: 123 annotated human PHD-containing domains; test: PHD finger domain microarray probed with biotinylated peptides (all domains); assay type: binding; details: GST-PHD readers in duplicate on nitrocellulose slides, biotinylated peptide pre-labeled with streptavidin-Cy3
Excerpt: To define the histone binding preferences of the PHD finger proteome, we expressed and purified 123 annotated human PHD-containing domains as GST-tagged recombinant fusions from E. coli. The recombinant proteins consisted of either PHD fingers in isolation, or as tandem domains if a given PHD finger was located adjacent to another reader domain (e.g., one or more PHD fingers, Tudor, chromo and/or bromodomains) (Additional file 1: Table S1). These GST fusions were printed in duplicate on nitrocellulose-coated microarray slides and probed with biotinylated peptides that represented the N-termini of H3, H4, H2A or H2B (Fig. 1a and Additional file 2: Figure S1). As the majority of PHD readers thus far characterized are H3K4me0/3 readers, we included additional peptides (H3K4 as either mono-, di-, or trimethylated) to further determine any H3K4 methyl preference (Additional file 2: Figure S2 and Fig. 1b). As a control, we also probed these microarrays with an α-Tubulin peptide (a.a. 30–50) that would not be predicted to interact with PHD fingers (Additional file 2: Figure S1). […] We also cannot exclude the possibility that some PHD fingers might not be functionally active on the microarrays (perhaps due to misfolding or the lack of an important adjacent region).
The protein domain microarray was designed to include 123 GST-tagged PHD-domain containing recombinant proteins. Protein domain microarray development and probing was as previously. Briefly, recombinant proteins were synthesized and cloned into pGEX-4T-1 vector by Biomatik Corporation. These GST-PHD readers were subsequently expressed, purified, and spotted in duplicate onto nitrocellulose-coated glass slides (Oncyte Avid slides, Grace Bio-Labs) using a pin arrayer (Aushon 2470, Aushon). For probing, microarray slides were blocked with 3% milk, 3% bovine serum albumin, 0.1% Tween 20 in PBS. Biotinylated peptides were pre-labeled with streptavidin-Cy3 fluorophore (GE Healthcare) and incubated with the blocked array slides. Slides were then washed with PBST and allowed to air dry. Fluorescent interactions were visualized using a GenePix 4200A Microarray Scanner (Molecular Devices).

ING5 = test: Histone peptide microarray; assay type: binding, human; details: ING5, GST-tagged; arrays performed twice, n of 4
Summary of the method: (§1)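 GST-tagged PHD finger readers were expressed, purified and applied at 0.5 μM to a microarray of 293 synthetic histone peptides carrying single or combinatorial PTMs, using an optimized protocol. Binding signals are averages with standard deviation from 4 replicates.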

ING3 = test: Histone peptide microarray; assay type: binding, human; details: ING3, GST-tagged; arrays performed twice, n of 4
Summary of the method: as §1

DIDO1 = test: Histone peptide microarray; assay type: binding, human; details: DIDO1, GST-tagged; arrays performed twice, n of 4
Summary of the method: as §1

MLL5 = test: Histone peptide microarray; assay type: binding, human; details: MLL5, GST-tagged; arrays performed twice, n of 4
Summary of the method: as §1

ING1 = test: Histone peptide microarray; assay type: binding, human; details: ING1, GST-tagged; arrays performed twice, n of 4
Summary of the method: as §1

MORC3 (CW) = test: Histone peptide microarray; assay type: binding, human; details: MORC3 (CW), GST-tagged; arrays performed twice, n of 4
Summary of the method: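 A peptide microarray holding 293 synthetic histone peptides with individual or combinatorial modifications was probed with each GST-PHD protein at 0.5 μM. Values represent mean intensity (±SD) from four replicates.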

KDM5B (1) = test: Histone peptide microarray; assay type: binding, human; details: KDM5B (1), GST-tagged; arrays performed twice, n of 4
Summary of the method: as §1

AIRE (PP) = test: Histone peptide microarray; assay type: binding, human; details: AIRE (PP), GST-tagged; arrays performed twice, n of 4
Summary of the method: as §1

PHF8 = test: Histone peptide microarray; assay type: binding, human; details: PHF8, GST-tagged; arrays performed twice, n of 4
Summary of the method: as §1

ING4 = test: Histone peptide microarray; assay type: binding, human; details: ING4, GST-tagged; arrays performed twice, n of 4
Summary of the method: as §1

CHD4 (PPCC) = test: Histone peptide microarray; assay type: binding, human; details: CHD4 (PPCC), GST-tagged; arrays performed twice, n of 4
Summary of the method: as §1

KDM5B (3) = test: Histone peptide microarray; assay type: binding, human; details: KDM5B (3), GST-tagged; arrays performed twice, n of 4
Summary of the method: as §1

PHF23 = test: Histone peptide microarray; assay type: binding, human; details: PHF23, GST-tagged; arrays performed twice, n of 4
Summary of the method: as §1

KDM4C (TTP) = test: Histone peptide microarray; assay type: binding, human; details: KDM4C (TTP), GST-tagged; arrays performed twice, n of 4
Summary of the method: as §1

PHF21A = test: Histone peptide microarray; assay type: binding, human; details: PHF21A, GST-tagged; arrays performed twice, n of 4
Summary of the method: as §1

PHF13 = test: Histone peptide microarray; assay type: binding, human; details: PHF13, GST-tagged; arrays performed twice, n of 4
Summary of the method: as §1

TRIM66 (PB) = test: Histone peptide microarray; assay type: binding, human; details: TRIM66 (PB), GST-tagged; arrays performed twice, n of 4
Summary of the method: as §1

KDM7A = test: Histone peptide microarray; assay type: binding, human; details: KDM7A, GST-tagged; arrays performed twice, n of 4
Summary of the method: as §1

DPF2 (PPC2W2) = test: Histone peptide microarray; assay type: binding, human; details: DPF2 (PPC2W2), GST-tagged; arrays performed twice, n of 4
Summary of the method: as §1

CHD5 (PCC) = test: Histone peptide microarray; assay type: binding, human; details: CHD5 (PCC), GST-tagged; arrays performed twice, n of 4
Summary of the method: as §1

PHF2 = test: Histone peptide microarray; assay type: binding, human; details: PHF2, GST-tagged; arrays performed twice, n of 4
Summary of the method: as §1

ING2 = test: Histone peptide microarray; assay type: binding, human; details: ING2, GST-tagged; arrays performed twice, n of 4
Summary of the method: as §1

KDM5A (3) = test: Histone peptide microarray; assay type: binding, human; details: KDM5A (3), GST-tagged; arrays performed twice, n of 4
Summary of the method: as §1

PHRF1 (RP) = test: Histone peptide microarray; assay type: binding, human; details: PHRF1 (RP), GST-tagged; arrays performed twice, n of 4
Summary of the method: as §1

CHD5 (PPCC) = test: Histone peptide microarray; assay type: binding, human; details: CHD5 (PPCC), GST-tagged; arrays performed twice, n of 4
Summary of the method: as §1

KDM5A (1) = test: Histone peptide microarray; assay type: binding, human; details: KDM5A (1), GST-tagged; arrays performed twice, n of 4
Summary of the method: as §1

BPTF (PB) = test: Histone peptide microarray; assay type: binding, human; details: BPTF (PB), GST-tagged; arrays performed twice, n of 4
Summary of the method: as §1

BAZ2B = test: Histone peptide microarray; assay type: binding, human; details: BAZ2B, GST-tagged; arrays performed twice, n of 4
Summary of the method: as §1

TAF3 = test: Histone peptide microarray; assay type: binding, human; details: TAF3, GST-tagged; arrays performed twice, n of 4
Summary of the method: as §1

SP140L = test: Histone peptide microarray; assay type: binding, human; details: SP140L, GST-tagged; arrays performed twice, n of 4
Summary of the method: as §1

RAG2 = test: Histone peptide microarray; assay type: binding, human; details: RAG2, GST-tagged; arrays performed twice, n of 4
Summary of the method: as §1

Ac-H2A (1-17): histone peptide (Ac-SGRGKQGGKARAKAKTR; UniProt P0C0S8 2-18, looked up, fragment)
binding on domain microarray [1]: No detectable binding observed

Ac-H4 (1-16): histone peptide (SGRGKGGKGLGKGGAK; N-terminal acetylation; UniProt P62805 2-17, looked up, fragment)
binding on domain microarray [1]: No detectable binding observed

H2B: biotinylated N-terminal H2B peptide (Figure S1: H2B (1-24)) [Peptide H2B]
binding on domain microarray [1]: little to no positive interactions

H4: biotinylated N-terminal H4 peptide (Figure S1: Ac-H4 (1-16)) (SGRGKGGKGLGKGGAK; biotin, N-terminal acetyl; UniProt P62805 2-17, looked up, fragment) [Peptide H4]
binding on domain microarray [1]: little to no positive interactions

Myc-Tag: 1-10 (ILKKATAYIL; Myc epitope tag; UniProt P01106 410-419, looked up, fragment)
Array Heatmap value (peptide array binding signal) (ING5): 0.3459
Array Heatmap value (peptide array binding signal) (ING3): 0.5082
Array Heatmap value (peptide array binding signal) (DIDO1): 0.7478
Array Heatmap value (peptide array binding signal) (MLL5): 0.5446
Array Heatmap value (peptide array binding signal) (ING1): 0.569
Array Heatmap value (peptide array binding signal) (MORC3 (CW)): 0.3567
Array Heatmap value (peptide array binding signal) (KDM5B (1)): 0.6488
Array Heatmap value (peptide array binding signal) (AIRE (PP)): 0.3997
Array Heatmap value (peptide array binding signal) (PHF8): 0.3567
Array Heatmap value (peptide array binding signal) (ING4): 0.4476
Array Heatmap value (peptide array binding signal) (CHD4 (PPCC)): 0.5842
Array Heatmap value (peptide array binding signal) (KDM5B (3)): 0.4322
Array Heatmap value (peptide array binding signal) (PHF23): 0.5279
Array Heatmap value (peptide array binding signal) (KDM4C (TTP)): 0.4677
Array Heatmap value (peptide array binding signal) (PHF21A): 0.4264
Array Heatmap value (peptide array binding signal) (PHF13): 0.6119
Array Heatmap value (peptide array binding signal) (TRIM66 (PB)): 0.6061
Array Heatmap value (peptide array binding signal) (KDM7A): 0.3296
Array Heatmap value (peptide array binding signal) (DPF2 (PPC2W2)): 0.6957
Array Heatmap value (peptide array binding signal) (CHD5 (PCC)): 0.7878
Array Heatmap value (peptide array binding signal) (PHF2): 0.5897
Array Heatmap value (peptide array binding signal) (ING2): 0.5931
Array Heatmap value (peptide array binding signal) (KDM5A (3)): 0.493
Array Heatmap value (peptide array binding signal) (PHRF1 (RP)): 0.4883
Array Heatmap value (peptide array binding signal) (CHD5 (PPCC)): 0.538
Array Heatmap value (peptide array binding signal) (KDM5A (1)): 0.4279
Array Heatmap value (peptide array binding signal) (BPTF (PB)): 0.3544
Array Heatmap value (peptide array binding signal) (BAZ2B): 0.4426
Array Heatmap value (peptide array binding signal) (TAF3): 0.2522
Array Heatmap value (peptide array binding signal) (SP140L): 0.3664
Array Heatmap value (peptide array binding signal) (RAG2): 0.2496

α-Tubulin (30-50): α-Tubulin peptide (a.a. 30–50), control (IQPDGQMPSDKTIGGGDDSFN; also: biotin (end not given here))
binding on domain microarray [1]: No detectable binding observed
binding on domain microarray ([1]; listed as tubulin): little to no positive interactions

Source: article PMC6979384, “Characterization of the plant homeodomain (PHD) reader family for their histone tail interactions” (Epigenetics & Chromatin, 2020)
